From patent US20260335495A1, “SYNERGISTIC ACTIVITY OF NOVEL COMPOUNDS AGAINST PLANKTONIC AND BIOFILM CELLS OF CLINICALLY RELEVANT PATHOGENS” (priority 2021, published 2026)

Assays:
Escherichia coli ON29 [1] = assay: MBC/MFC and FMCI, planktonic cells; assay type: cell-based
Procedure: (§1) The MIC was determined by the micro broth dilution method in 96-well plates. […] A 10 μL containing 1×10^5 bacterial cells or 2×10^3 fungal cells were added to each well. The inoculated plates were covered with a lid, sealed with Parafilm, and incubated for 24 h at 37 °C with slight rocking on a tilting platform shaker. After incubation, the optical density at 600 nm (OD 600) of the cultures in each well was measured using an xMark™ Microplate Absorbance Spectrophotometer (Bio-Rad). The MIC was defined as the lowest concentration of antimicrobial compound at which the culture OD600 values was similar to uninoculated control wells. MBCs and MFCs were determined by transferring 100 μL from each well with no apparent growth onto appropriate agar plates, followed by incubation for 24 h at 37 °C.
(§2) The concentrations of antimicrobials used were based on previously determined MIC values. […] Microtiter plates were incubated at 37 °C for 24 h, and the results were analyzed. Each test was performed in duplicate and included a growth control without the addition of any antimicrobials.

S. epidermidis SK9 [2] = assay: MBC/MFC and FMCI, planktonic cells; assay type: cell-based
Procedure: as §1, §2

Serratia marcescens SK2 [3] = assay: MBC/MFC and FMCI, planktonic cells; assay type: cell-based
Procedure: as §1, §2

[4] = tested on: Staphylococcus epidermidis ON170; assay: MBC/MFC and FMCI, planktonic cells; assay type: cell-based
Procedure: as §1, §2

Proteus mirabilis ON153 [5] = assay: MBC/MFC and FMCI, planktonic cells; assay type: cell-based
Procedure: as §1, §2

[6] = tested on: Staphylococcus aureus ON89; assay: MBC/MFC and FMCI, planktonic cells; assay type: cell-based
Procedure: as §1, §2

E. coli SK2 [7] = assay: MBC/MFC and FMCI, planktonic cells; assay type: cell-based
Procedure: as §1, §2

MRSA ON184 [8] = assay: MBC/MFC and FMCI, planktonic cells; assay type: cell-based, methicillin-resistant S. aureus
Procedure: as §1, §2

MRSA ON184 [9] = assay: MIC and checkerboard (FICI), planktonic cells; assay type: cell-based, methicillin-resistant S. aureus
Procedure: as §1, §2

Candida albicans SK4b [10] = assay: MBC/MFC and FMCI, planktonic cells; assay type: cell-based
Procedure: as §1, with “The MIC was defined as the lowest concentration of antimicrobial compound at which the culture OD600 values was similar to uninoculated control wells.” left out
as §2

[11] = tested on: Stenotrophomonas maltophilia ON17; assay: MBC/MFC and FMCI, planktonic cells; assay type: cell-based
Procedure: as §1, with “The MIC was defined as the lowest concentration of antimicrobial compound at which the culture OD600 values was similar to uninoculated control wells.” left out
as §2

C. albicans ON47 [12] = assay: MBC/MFC and FMCI, planktonic cells; assay type: cell-based
Procedure: as §1, with “The MIC was defined as the lowest concentration of antimicrobial compound at which the culture OD600 values was similar to uninoculated control wells.” left out
as §2

[13] = tested on: Pseudomonas aeruginosa SK1; assay: MBC/MFC and FMCI, planktonic cells; assay type: cell-based
Procedure: as §1, with “The MIC was defined as the lowest concentration of antimicrobial compound at which the culture OD600 values was similar to uninoculated control wells.” left out
as §2

Escherichia coli ON29 [14] = assay: MIC and checkerboard (FICI), planktonic cells; assay type: cell-based
Procedure: as §1, §2

Candida albicans SK4b [15] = assay: MIC and checkerboard (FICI), planktonic cells; assay type: cell-based
Procedure: as §1, §2

S. epidermidis SK9 [16] = assay: MIC and checkerboard (FICI), planktonic cells; assay type: cell-based
Procedure: as §1, §2

Serratia marcescens SK2 [17] = assay: MIC and checkerboard (FICI), planktonic cells; assay type: cell-based
Procedure: as §1, §2

[18] = tested on: Stenotrophomonas maltophilia ON17; assay: MIC and checkerboard (FICI), planktonic cells; assay type: cell-based
Procedure: as §1, §2

[19] = tested on: Staphylococcus epidermidis ON170; assay: MIC and checkerboard (FICI), planktonic cells; assay type: cell-based
Procedure: as §1, §2

C. albicans ON47 [20] = assay: MIC and checkerboard (FICI), planktonic cells; assay type: cell-based
Procedure: as §1, §2

Proteus mirabilis ON153 [21] = assay: MIC and checkerboard (FICI), planktonic cells; assay type: cell-based
Procedure: as §1, §2

[22] = tested on: Staphylococcus aureus ON89; assay: MIC and checkerboard (FICI), planktonic cells; assay type: cell-based
Procedure: as §1, §2

E. coli SK2 [23] = assay: MIC and checkerboard (FICI), planktonic cells; assay type: cell-based
Procedure: as §1, §2

[24] = tested on: Pseudomonas aeruginosa SK1; assay: MIC and checkerboard (FICI), planktonic cells; assay type: cell-based
Procedure: as §1, §2

12 test organisms = assay: MBC/MFC and FMCI, planktonic cells, summary over strains; assay type: cell-based, bacterial and fungal organisms
Procedure: as §1, §2

[25] = tested on: bacterial and fungal biofilms; assay: Rapid eradication of 48-h-old biofilms within 2 h exposure; assay type: cell-based, bacterial and fungal strains; settings: at the MBEC alone, 48-h-old biofilm
Procedure: This example comprises performing biofilm growth as described above. After biofilm formation, control pegs (n=6) were removed and analyzed to determine the starting biofilm cell numbers via the drop dilution method. The 48-h old biofilms on the pegs were exposed to different concentrations of test antimicrobials, dissolved in an appropriate growth medium, for 2 hours to evaluate their efficacy alone and in combination. […] Following treatment, pegs were washed twice with sterile PBS, and the biofilm cells were dislodged into recovery medium and enumerated as described above.

O=C(O)CN(CCN(CC(=O)O)CC(=O)O)CC(=O)O.[Na].[Na].[Na].[Na] [TE, tetrasodium ethylenediaminetetraacetic acid]
MBC/MFC in combination (Escherichia coli ON29 [1]; TE + CH in combination): 0.008%
MBC/MFC in combination (Escherichia coli ON29 [1]; TE + ET in combination): 0.25%
MBC/MFC (Escherichia coli ON29 [1]; alone): 1%
MBC/MFC in combination (S. epidermidis SK9 [2]; TE + CH in combination): 0.008%
MBC/MFC in combination (S. epidermidis SK9 [2]; TE + ET in combination): 0.031%
MBC/MFC (S. epidermidis SK9 [2]; alone): 0.5%
MBC/MFC in combination (Serratia marcescens SK2 [3]; TE + CH in combination): 0.125%
MBC/MFC in combination (Serratia marcescens SK2 [3]; TE + ET in combination): 0.25%
MBC/MFC (Serratia marcescens SK2 [3]; alone): 2%
MBC/MFC in combination ([4]; TE + CH in combination): 0.25%
MBC/MFC in combination ([4]; TE + ET in combination): 0.031%
MBC/MFC ([4]; alone): 0.5%
MBC/MFC in combination (Proteus mirabilis ON153 [5]; TE + CH in combination): 0.125%
MBC/MFC in combination (Proteus mirabilis ON153 [5]; TE + ET in combination): 0.063%
MBC/MFC (Proteus mirabilis ON153 [5]; alone): 2%
MBC/MFC in combination ([6]; TE + CH in combination): 0.008%
MBC/MFC in combination ([6]; TE + ET in combination): 0.25%
MBC/MFC ([6]; alone): 1%
MBC/MFC in combination (E. coli SK2 [7]; TE + CH in combination): 0.015%
MBC/MFC in combination (E. coli SK2 [7]; TE + ET in combination): 0.25%
MBC/MFC (E. coli SK2 [7]; alone): 0.5%
MBC/MFC in combination (MRSA ON184 [8]; TE + CH in combination): 0.125%
MBC/MFC in combination (MRSA ON184 [8]; TE + ET in combination): 0.031%
MBC/MFC (MRSA ON184 [8]; alone): 2%
MIC in combination (MRSA ON184 [9]; TE + CH in combination): 0.008%
MIC in combination (MRSA ON184 [9]; TE + ET in combination): 0.015%
MIC (MRSA ON184 [9]; alone, 24 h, 37 °C): 0.063%
MBC/MFC in combination (Candida albicans SK4b [10]; TE + CH in combination): 0.125%
MBC/MFC in combination (Candida albicans SK4b [10]; TE + ET in combination): 0.25%
MBC/MFC (Candida albicans SK4b [10]; alone): 1%
MBC/MFC in combination ([11]; TE + CH in combination): 0.031%
MBC/MFC in combination ([11]; TE + ET in combination): 0.125%
MBC/MFC ([11]; alone): 1%
MBC/MFC in combination (C. albicans ON47 [12]; TE + CH in combination): 0.031%
MBC/MFC in combination (C. albicans ON47 [12]; TE + ET in combination): 0.25%
MBC/MFC (C. albicans ON47 [12]; alone): 2%
MBC/MFC in combination ([13]; TE + CH in combination): 0.031%
MBC/MFC in combination ([13]; TE + ET in combination): 0.031%
MBC/MFC ([13]; alone): 1%
MIC in combination (Escherichia coli ON29 [14]; TE + CH in combination): 0.008%
MIC in combination (Escherichia coli ON29 [14]; TE + ET in combination): 0.25%
MIC (Escherichia coli ON29 [14]; alone, 24 h, 37 °C): 0.5%
MIC in combination (Candida albicans SK4b [15]; TE + CH in combination): 0.063%
MIC in combination (Candida albicans SK4b [15]; TE + ET in combination): 0.25%
MIC (Candida albicans SK4b [15]; alone, 24 h, 37 °C): 1%
MIC in combination (S. epidermidis SK9 [16]; TE + CH in combination): 0.015%
MIC in combination (S. epidermidis SK9 [16]; TE + ET in combination): 0.015%
MIC (S. epidermidis SK9 [16]; alone, 24 h, 37 °C): 0.063%
MIC in combination (Serratia marcescens SK2 [17]; TE + CH in combination): 0.063%
MIC in combination (Serratia marcescens SK2 [17]; TE + ET in combination): 0.5%
MIC (Serratia marcescens SK2 [17]; alone, 24 h, 37 °C): 1%
MIC in combination ([18]; TE + CH in combination): 0.015%
MIC in combination ([18]; TE + ET in combination): 0.031%
MIC ([18]; alone, 24 h, 37 °C): 0.063%
MIC in combination ([19]; TE + CH in combination): 0.063%
MIC in combination ([19]; TE + ET in combination): 0.015%
MIC ([19]; alone, 24 h, 37 °C): 0.063%
MIC in combination (C. albicans ON47 [20]; TE + CH in combination): 0.125%
MIC in combination (C. albicans ON47 [20]; TE + ET in combination): 0.25%
MIC (C. albicans ON47 [20]; alone, 24 h, 37 °C): 1%
MIC in combination (Proteus mirabilis ON153 [21]; TE + CH in combination): 0.063%
MIC in combination (Proteus mirabilis ON153 [21]; TE + ET in combination): 0.5%
MIC (Proteus mirabilis ON153 [21]; alone, 24 h, 37 °C): 1%
MIC in combination ([22]; TE + CH in combination): 0.008%
MIC in combination ([22]; TE + ET in combination): 0.015%
MIC ([22]; alone, 24 h, 37 °C): 0.063%
MIC in combination (E. coli SK2 [23]; TE + CH in combination): 0.008%
MIC in combination (E. coli SK2 [23]; TE + ET in combination): 0.015%
MIC (E. coli SK2 [23]; alone, 24 h, 37 °C): 0.5%
MIC in combination ([24]; TE + CH in combination): 0.5%
MIC in combination ([24]; TE + ET in combination): 0.031%
MIC ([24]; alone, 24 h, 37 °C): 0.25%
microbicidal activity (12 test organisms): broad-spectrum microbicidal activity
biofilm eradication [25]: failed to eradicate the preformed biofilms
